Holding throughout (assay): pNP release at […] nm in whole cells of complemented P. putida phoX mutant
For one assay, the target named is T1, PhoA1^Fj (Flavobacterium johnsoniae, UniProt A5FEV6).
T1 construct: gene Fjoh_3249; full gene expressed from pBBR1MCS-km in P. putida BIRD-1 phoX mutant; whole-cell assay
T1 sequence (A5FEV6 19-607): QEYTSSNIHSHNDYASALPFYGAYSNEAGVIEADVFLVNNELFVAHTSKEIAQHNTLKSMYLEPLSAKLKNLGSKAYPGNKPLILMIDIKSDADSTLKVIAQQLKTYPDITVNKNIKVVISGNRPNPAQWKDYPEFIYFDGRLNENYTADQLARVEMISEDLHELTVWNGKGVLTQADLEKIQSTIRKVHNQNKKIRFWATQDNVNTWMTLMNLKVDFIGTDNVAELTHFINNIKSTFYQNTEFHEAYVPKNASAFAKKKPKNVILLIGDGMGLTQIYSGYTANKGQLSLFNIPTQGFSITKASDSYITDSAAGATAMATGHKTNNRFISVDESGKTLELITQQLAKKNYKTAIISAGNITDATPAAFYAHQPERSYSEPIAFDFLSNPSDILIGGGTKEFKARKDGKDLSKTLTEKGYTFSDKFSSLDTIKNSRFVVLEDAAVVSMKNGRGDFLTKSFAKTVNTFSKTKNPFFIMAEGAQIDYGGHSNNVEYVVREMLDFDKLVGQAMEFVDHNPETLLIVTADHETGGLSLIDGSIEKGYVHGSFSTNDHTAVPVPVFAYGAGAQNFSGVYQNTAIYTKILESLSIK
It is filed as cell-based, Pseudomonas putida. Conditions: 10 mM pNPP; growth medium or Tris-HCl pH 9.4; 28 °C.

For the next assay, the target named is T2, PafA^Cp2 (Chitinophaga pinensis, UniProt A0A979G1Z1).
T2 construct: gene Cpin_1665; synthesized gene expressed in P. putida BIRD-1 phoX mutant; whole-cell assay
T2 sequence (A0A979G1Z1 29-568): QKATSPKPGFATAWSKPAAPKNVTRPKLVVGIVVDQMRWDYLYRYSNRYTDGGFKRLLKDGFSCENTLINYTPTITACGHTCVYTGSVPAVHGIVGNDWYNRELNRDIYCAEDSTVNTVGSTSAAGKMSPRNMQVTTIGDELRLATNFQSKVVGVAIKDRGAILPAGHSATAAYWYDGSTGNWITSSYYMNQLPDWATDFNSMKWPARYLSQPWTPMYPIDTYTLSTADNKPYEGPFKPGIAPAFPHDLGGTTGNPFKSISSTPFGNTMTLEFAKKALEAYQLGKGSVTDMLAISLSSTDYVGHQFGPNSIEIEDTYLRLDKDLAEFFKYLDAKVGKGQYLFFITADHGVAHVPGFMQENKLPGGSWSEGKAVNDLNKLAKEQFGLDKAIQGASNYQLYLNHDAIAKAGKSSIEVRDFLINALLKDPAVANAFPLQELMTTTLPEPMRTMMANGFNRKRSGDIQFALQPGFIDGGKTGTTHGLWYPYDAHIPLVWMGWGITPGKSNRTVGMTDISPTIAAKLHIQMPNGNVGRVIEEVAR
It counts as cell-based. Conditions: 10 mM pNPP.

For another assay, the target named is T3, PafA^Fj (Flavobacterium johnsoniae, UniProt A5FP14).
T3 construct: gene Fjoh_0023; full gene expressed from pBBR1MCS-km in P. putida BIRD-1 phoX mutant; whole-cell assay
T3 sequence (A5FP14 19-539): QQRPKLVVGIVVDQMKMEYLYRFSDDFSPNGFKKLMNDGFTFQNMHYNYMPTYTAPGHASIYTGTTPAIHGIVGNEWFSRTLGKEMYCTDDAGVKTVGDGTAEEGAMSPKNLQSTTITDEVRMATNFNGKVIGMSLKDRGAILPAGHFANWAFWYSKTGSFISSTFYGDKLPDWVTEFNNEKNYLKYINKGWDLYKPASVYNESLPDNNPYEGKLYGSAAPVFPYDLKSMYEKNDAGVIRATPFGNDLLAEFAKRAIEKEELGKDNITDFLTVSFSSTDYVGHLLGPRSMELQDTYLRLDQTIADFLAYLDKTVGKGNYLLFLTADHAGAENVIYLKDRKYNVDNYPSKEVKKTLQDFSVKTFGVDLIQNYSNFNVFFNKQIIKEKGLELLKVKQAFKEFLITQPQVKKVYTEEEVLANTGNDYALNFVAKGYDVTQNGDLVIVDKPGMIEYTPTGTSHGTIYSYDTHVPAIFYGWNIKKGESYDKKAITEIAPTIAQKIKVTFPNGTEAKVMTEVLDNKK
It counts as cell-based. Conditions: 10 mM pNPP; growth medium or Tris-HCl pH 9.4; 28 °C.

A further assay has as its target T4, PafA^Cp1 (Chitinophaga pinensis, UniProt A0A979GMC5).
T4 construct: gene Cpin_0724; synthesized gene expressed in P. putida BIRD-1 phoX mutant; whole-cell assay
T4 sequence (A0A979GMC5 26-545): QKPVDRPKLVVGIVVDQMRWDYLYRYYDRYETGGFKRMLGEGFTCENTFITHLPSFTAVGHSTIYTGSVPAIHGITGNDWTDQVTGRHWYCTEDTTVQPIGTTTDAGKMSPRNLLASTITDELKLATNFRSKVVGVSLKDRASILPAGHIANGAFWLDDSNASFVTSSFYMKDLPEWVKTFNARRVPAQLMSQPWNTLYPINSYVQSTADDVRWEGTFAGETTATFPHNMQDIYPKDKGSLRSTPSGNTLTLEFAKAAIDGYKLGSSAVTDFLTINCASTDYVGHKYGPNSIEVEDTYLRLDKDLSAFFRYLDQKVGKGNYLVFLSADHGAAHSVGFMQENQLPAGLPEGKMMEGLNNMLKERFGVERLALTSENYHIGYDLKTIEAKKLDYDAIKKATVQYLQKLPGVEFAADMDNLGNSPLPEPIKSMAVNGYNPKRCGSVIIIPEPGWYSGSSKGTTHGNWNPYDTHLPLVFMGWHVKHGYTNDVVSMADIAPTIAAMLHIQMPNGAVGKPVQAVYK
It is filed as cell-based. Conditions: 10 mM pNPP.

The next assay deals with T5, PhoA^Ec (Escherichia coli, UniProt P00634).
T5 construct: full gene expressed in P. putida BIRD-1 phoX mutant; whole-cell assay
It counts as cell-based, Pseudomonas putida. Conditions: 10 mM pNPP; growth medium or Tris-HCl pH 9.4; 28 °C.

A further assay deals with T6, PhoA2^Fj (Flavobacterium johnsoniae, UniProt A5FF14).
T6 construct: gene Fjoh_3187; full gene expressed from pBBR1MCS-km in P. putida BIRD-1 phoX mutant; whole-cell assay
T6 sequence (A5FF14 27-468): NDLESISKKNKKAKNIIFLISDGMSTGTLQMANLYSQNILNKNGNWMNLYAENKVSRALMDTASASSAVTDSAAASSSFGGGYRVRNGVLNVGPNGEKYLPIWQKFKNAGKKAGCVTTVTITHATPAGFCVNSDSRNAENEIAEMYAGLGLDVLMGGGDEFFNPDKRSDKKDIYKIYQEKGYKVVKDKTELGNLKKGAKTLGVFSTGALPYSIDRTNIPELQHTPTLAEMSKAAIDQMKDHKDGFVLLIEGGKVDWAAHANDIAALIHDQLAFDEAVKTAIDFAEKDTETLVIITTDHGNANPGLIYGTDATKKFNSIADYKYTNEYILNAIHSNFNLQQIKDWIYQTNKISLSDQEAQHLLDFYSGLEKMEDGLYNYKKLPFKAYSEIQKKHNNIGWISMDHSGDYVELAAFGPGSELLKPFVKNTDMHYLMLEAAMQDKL
It counts as cell-based. Conditions: 10 mM pNPP; growth medium or Tris-HCl pH 9.4; 28 °C.

T5 sequence (P00634 22-471): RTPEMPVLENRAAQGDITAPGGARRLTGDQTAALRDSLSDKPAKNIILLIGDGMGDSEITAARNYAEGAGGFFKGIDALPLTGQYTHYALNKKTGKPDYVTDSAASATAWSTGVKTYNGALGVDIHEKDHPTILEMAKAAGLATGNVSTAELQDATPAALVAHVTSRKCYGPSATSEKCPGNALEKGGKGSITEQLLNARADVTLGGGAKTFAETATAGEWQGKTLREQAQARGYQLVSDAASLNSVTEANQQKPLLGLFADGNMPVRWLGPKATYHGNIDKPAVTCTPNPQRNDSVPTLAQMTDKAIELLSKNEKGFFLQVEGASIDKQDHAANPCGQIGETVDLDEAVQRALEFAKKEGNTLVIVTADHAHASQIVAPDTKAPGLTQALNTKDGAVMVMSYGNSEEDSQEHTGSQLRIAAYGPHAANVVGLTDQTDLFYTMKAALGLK

On to `O=[N+]([O-])c1ccc(OP(=O)(O)O)cc1` [para-nitrophenyl phosphate], for which the PME activity result on PhoA1^Fj is “cells producing PhoA1^Fj (+pBXphoA1^Fj), PhoA2^Fj (+pBXphoA2^Fj), or PafA^Fj (+pBXpafA^Fj) also restored PME activity”; on PafA^Cp2, “demonstrating both are functional Pi-insensitive PMEs”; at PafA^Fj, “or PafA^Fj (+pBXpafA^Fj) also restored PME activity, confirming their function as PMEs”; at PafA^Cp1 it was “demonstrating both are functional Pi-insensitive PMEs”; on PhoA^Ec it was “Plasmid copies of either phoX^BIRD (+pBXphoX^BIRD) or the E. coli phoA (+pBXphoA^Ec) restored PME activity”; at PhoA2^Fj it was “cells producing PhoA1^Fj (+pBXphoA1^Fj), PhoA2^Fj (+pBXphoA2^Fj), or PafA^Fj (+pBXpafA^Fj) also restored PME activity”.

Values taken from paper PMC8812569, “A widely distributed phosphate-insensitive phosphatase presents a route for rapid organophosphorus remineralization in the biosphere” (Proceedings of the National Academy of Sciences of the …, 2022).
